Patent publication US8722096B2, “Lipoic acid pellets” (Aptalis Pharma Limited, priority 2006, dated 2014)

Columns and labels:
[1] = Stability of lipoic acid in ethanol/phosphate buffer solutions; type: physicochemical; conditions: ethanol/phosphate buffer 50 mM pH 6.8, 80:20 to 90:10; room temperature, protected from light
Method: In case the application in the solvent form is chosen, for example ethanol, acetone or other solvents or their mixtures thereof can be used. Also other mixtures of organic solvents with buffer solutions can be used, for example mixtures of ethanol and phosphate buffers. These mixtures can be composed by ethanol/phosphate buffer 50 mM pH:6.8 in proportions ranging from 80:20 to 90:10. In these solutions, lipoic acid is stable for at least 24 hours if stored at room temperature and protected from light. Lipoic acid is dissolved in these solvents at an optimal concentration ranging from 20 to 30% w/w, depending on the type of solvent or solvent mixture used. Application of the lipoic acid solution on the core is performed by wetting and subsequent evaporation of the solvent in presence of air at a temperature lower than 40° C., preferably ranging between 36 and 38° C. This procedure yields active cores with a low content of residual solvents.

[2] = gives polymerization products; cited from earlier work

time for which lipoic acid is stable in solution [1]: at least 24 hours
SMILES: O=C(O)CCCCC1CCSS1 (centres unmarked) [lipoic acid, 1,2-dithiolan-3-pentanoic acid]
stability under environmental conditions [2]: unstable under various environmental conditions
